Where “and” joins values, the source holds several entries; their conditions need not be identical. Equal entries are not always repeated.

From the supplement of paper PMC4862054 come the findings set out here.

Assay [1] concerns CAL-51. As to the kind of experiment: drug sensitivity score (DSS), CellTiter-Glo (DSS (AUC-based score)); higher = stronger drug effect (viability inhibition or cytotoxicity); extreme values may be limits of the assay. The note with it: incubation time: 72 h. Put shortly:
(§1)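 Breast cancer cell lines were seeded in 20 µl suspension into 384-well plates already holding compound and incubated for 72 h. Each compound was tested at 5 concentrations in 10-fold steps across its own 10,000-fold range. Plates were normalised to 0.1 % DMSO and a positive kill control after CellTox Green and then CellTiter-Glo readings. The area under the fitted dose-response curve served as the basis for the drug sensitivity score.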
A general note: ATP-based viability assays read luminescence as a measure of living cells.

The test system of assay [2] is HCC1937. Described as above. Particulars: incubation time: 72 h. Put shortly:
as §1

Assay [3] has as its system BT-549. Described as above. The note with it: incubation time: 72 h. Put shortly:
as §1

Assay [4] relates to MCF-10A. Described as above. The note with it: incubation time: 72 h. Put shortly:
as §1

Assay [5] concerns HDQ-P1. Described as above. Particulars: incubation time: 72 h. In a few lines: as §1
Assay [6] concerns BT-474. Described as above. Particulars: incubation time: 72 h. In a few lines: as §1
Assay [7] concerns MFM-223. The assay is described as above. The note with it: incubation time: 72 h. In a few lines: as §1
Assay [8] concerns CAL-120. The description is as above. Particulars: incubation time: 72 h. Put shortly:
as §1

Assay [9] has as its system MDA-MB-468. Described as above. The note with it: incubation time: 72 h. Put shortly: as §1
For assay [10], the system named is MDA-MB-231. The description is as above. Particulars: incubation time: 72 h. In a few lines:
as §1

Assay [11] has as its system HCC1599. Described as above. The note with it: incubation time: 72 h. In a few lines: as §1
Assay [12] has as its system MDA-MB-453. The description is as above. Particulars: incubation time: 72 h. Put shortly:
as §1

Assay [13] deals with CAL-85-1. The assay is described as above. The note with it: incubation time: 72 h. In a few lines:
as §1

Assay [14] relates to Hs578T. The assay is described as above. The note with it: incubation time: 72 h. In a few lines: as §1
Assay [15] has as its system SK-BR-3. Described as above. The note with it: incubation time: 72 h. In a few lines:
as §1

For assay [16], the system named is DU-4475. The assay is described as above. Particulars: incubation time: 72 h. Put shortly: as §1
In assay [17] the test system is HCC1143. The assay is described as above. The note with it: incubation time: 72 h. Put shortly: as §1
Assay [18] has as its system HCC1937. As to the kind of experiment: normalised viability (% of control), CellTiter-Blue; higher = more viable cells (about 100 = DMSO control). The note with it: 100 nM; incubation time: 72 h. As for the experimental part: (§2)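 DSRT, CellTiter-Blue viability, 72 h incubation. Signal is normalised to DMSO and benzethonium chloride controls. Value is the normalised response at dose 3.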

Assay [19] deals with BT-549. The assay is described as above. Particulars: 100 nM; incubation time: 72 h. As for the experimental part:
as §2

Assay [20] has as its system HDQ-P1. The description is as above. The note with it: 10 nM; incubation time: 72 h. As for the experimental part: as §2
The subject of assay [21] is CAL-148. Described as above. The note with it: 10 nM; incubation time: 72 h. The protocol: as §2
The test system of assay [22] is MFM-223. The assay is described as above. The note with it: 100 nM; incubation time: 72 h. The protocol: as §2
In assay [23] the test system is CAL-120. The description is as above. The note with it: 100 nM; incubation time: 72 h. As for the experimental part: as §2
The test system of assay [24] is MDA-MB-468. The assay is described as above. Particulars: 100 nM; incubation time: 72 h. As for the experimental part: as §2
Assay [25] relates to MDA-MB-231. The description is as above. Particulars: 100 nM; incubation time: 72 h. The protocol:
as §2

For assay [26], the system named is HCC1599. Described as above. Particulars: 100 nM; incubation time: 72 h. The protocol:
as §2

Assay [27] deals with CAL-85-1. The description is as above. Particulars: 10 nM; incubation time: 72 h. The protocol:
as §2

For the molecule `COc1cc(Nc2ncc(F)c(Nc3ccc4c(n3)N(COP(=O)(O)O)C(=O)C(C)(C)O4)n2)cc(OC)c1OC` [Fostamatinib], the drug sensitivity score in [1] came out at 0; in assay [2], 1.88; in assay [3], 4.31; in assay [4], 7.38; in [5], 2.19; in assay [6], 4.12. Besides, the drug sensitivity score in assay [7] was 7.93; in assay [8] it was 5.15; in assay [9] it was 0; in assay [10], 6.92; in assay [11], 0; in assay [12] it was 0. The drug sensitivity score stood at 2.69 in [13]; 4.77 in [14]; 1.13 in assay [15]; 0 in assay [16]; 1.25 in assay [17].

As to `CC(C)NC[C@@H](C(=O)N1CCN(c2ncnc3c2[C@H](C)C[C@H]3O)CC1)c1ccc(Cl)cc1` [GDC-0068], the drug sensitivity score was found to be 8.39 in [1]; 3.46 in assay [2]; 6.02 in [3]; 3.41 in assay [4]; 7.19 in [5]; 0.706 in assay [6]. Further, the drug sensitivity score amounted to 16.6 in [7]; 3.43 in [8]; 8.65 in assay [9]; 0 in [10]; 0 in assay [11]; 10.4 in [12]. Further, the drug sensitivity score stood at 2.16 in assay [13]; 3.59 in assay [14]; 6.46 in assay [15]; 1.13 in [16]; 2.35 in [17].

In the case of `CCCc1cc(C)[nH]c(=O)c1CNC(=O)c1cc(-c2ccnc(N3CCN(C)CC3)c2)cc2c1cnn2C(C)C` [GSK343], the drug sensitivity score in assay [1] turned out to be 0; in assay [2], 0; in assay [3], 1.73; in assay [4] it was 0; in assay [5], 0; in assay [6] it was 3.79. In addition, the drug sensitivity score in assay [7] was 2.85; in assay [8] it was 0; in assay [9], 5.85; in assay [10], 4.65; in assay [11] it was 3.37; in [12], 6.37. The drug sensitivity score in assay [13] came out at 1.9; in assay [14] it was 0; in assay [15] it was 6.24; in assay [16] it was 1.22; in assay [17], 0.

As for `COc1cc2c(cc1-c1c(C)noc1C)ncc1[nH]c(=O)n([C@H](C)c3ccccn3)c12` [I-BET151], the drug sensitivity score turned out to be 3.89 in assay [1]; 2.32 in [2]; 8.5 in [3]; 5.37 in [4]; 3.02 in [5]; 3.77 in assay [6]. Further, the drug sensitivity score in assay [7] stood at 6.13; in assay [8] it was 5.1; in assay [9], 3.38; in assay [10], 2.63; in assay [11] it was 0; in assay [12], 7.96. The drug sensitivity score in assay [13] amounted to 8.93; in assay [14], 9.14; in assay [15], 3.27; in assay [16], 3.45; in [17], 1.94.

With `CC(C)n1nc(-c2ccc3oc(N)nc3c2)c2c(N)ncnc21` [INK128], the drug sensitivity score was found to be 16.5 in [1]; 8.72 in [2]; 15.9 in [3]; 12 in assay [4]; 13.5 in assay [5]; 11.5 in assay [6]. In addition, the drug sensitivity score in assay [7] turned out to be 15.5; in [8], 14.9; in [9] it was 13.5; in assay [10], 11.2; in assay [11], 4.56; in assay [12], 14.8. Moreover, the drug sensitivity score in assay [13] was 14.2; in [14], 13.8; in assay [15] it was 20.3; in [16], 8.44; in [17], 13.

Turning to `Cc1c(C(=O)Nc2ccc(N3C[C@@H](C)O[C@@H](C)C3)nc2)cccc1-c1ccc(OC(F)(F)F)cc1` [NVP-LDE225], the normalised viability in [18] came out at 97.2%; in [19], 97%; in [20] it was 83.5%; in assay [21] it was 108%; in assay [22], 108%; in assay [23] it was 99.7%. The normalised viability was 113% in [24], 99% in assay [25], 102% in assay [26] and 102% in assay [27].

Regarding `CO[C@H](C(=O)[C@@H](O)[C@@H](C)O)[C@@H]1Cc2cc3cc(O[C@H]4C[C@@H](O[C@@H]5C[C@@H](O)[C@H](O)[C@@H](C)O5)[C@H](O)[C@@H](C)O4)c(C)c(O)c3c(O)c2C(=O)[C@H]1O[C@H]1C[C@@H](O[C@@H]2C[C@@H](O)[C@@H](O[C@@H]3C[C@](C)(O)[C@H](O)[C@@H](C)O3)[C@@H](C)O2)[C@H](O)[C@@H](C)O1` [Plicamycin], the normalised viability in assay [18] was 48.3% and 41.4%; in assay [19], 20.2% and 17%; in assay [21] it was 82.9% and 99.5%; in assay [22] it was 71.4% and 61.1%; in assay [23], 45% and 34.8%; in [24] it was 9.16% and 7.26%. Also, the normalised viability in assay [25] was 34.4% and 28.9%; in [26], 63% and 52.6%; in assay [27] it was 96.7% and 94.2%. The drug sensitivity score in assay [1] is 18.2; in [2], 4.37; in assay [3] it was 7.16; in [4] it was 4.28; in assay [5], 2.83; in [6], 6.47. Further, the drug sensitivity score in assay [7] turned out to be 1.97; in assay [8], 2.12; in assay [9], 6.69; in assay [10] it was 5.67; in [11], 3.99; in [12], 3.11. The drug sensitivity score worked out at 4.1 in assay [13]; 4.2 in assay [14]; 3.86 in assay [15]; 5.55 in assay [16]; 4.54 in assay [17].

With `CN1CCc2c(c3ccccc3n2Cc2ccc(C(=O)NO)cc2)C1` [Tubastatin A], the drug sensitivity score in assay [1] came to 11.2; in assay [2], 1.2; in [3], 0.314; in assay [4] it was 0; in assay [5] it was 0; in [6] it was 0. For the same molecule, the drug sensitivity score in [7], in assay [8], in assay [9], in assay [10], in [11] and in assay [12] was 0 throughout. Further, the drug sensitivity score in assay [13] is 0.989; in [14], 0; in [15] it was 1.22; in assay [16], 0; in assay [17], 2.45.
